Source: paper PMC7883873, “Discovery of New Catalytic Topoisomerase II Inhibitors for Anticancer Therapeutics” (Frontiers in Oncology, 2021)

Experiments:
[1] = biological target: T1, TOP2A (431–1193) (Homo sapiens, UniProt P11388); assay: Electrophoresis mobility shift assay (EMSA); assay type: binding; conditions: 200 µM; 30 µM protein, 300 nM 5ZRF oligo
T1 construct: was incorporated with TOP2A (431–1193); made in house; host or cells: Escherichia coli BL21 co-expressing biotin ligase
Method: (§1) EMSA followed the standard protocols as we and others described with minor modifications ([54]–[56]). The double-strand DNA oligo, 5ZRF (AGCCGAGCTGCAGCTCGGCT labeled by IRDye700) was purchased from IDT (Coralville, USA). Human TOP2 (431–1193), TOP2A (TopoGEN) or TOP2B (Inspiralis) proteins were incubated with 300 nM of 5ZRF oligo in a standard 20 µl EMSA reaction in a reaction buffer containing 20 mM HEPES-NaOH, pH 7.4, 2 mM DTT, 3 mM MgCl2, 0.05% NP-40, protease inhibitors, and 0.1 µg poly[dI:dC]. After incubation for 30 min at 37C, reactions were loaded onto 4% non-denatured polyacrylamide gel in 0.5× TBE buffer. The DNA oligo bands were visualized by using the Li-Cor Odyssey 9120 Infrared Imaging System.

[2] = biological target: T2, full-length human TOP2A (Homo sapiens, UniProt P11388); assay: EMSA with full-length protein; assay type: binding; conditions: 200 µM; 2 µM protein, 300 nM 5ZRF oligo
T2 construct: full-length human TOP2A and TOP2B protein (TopoGEN and Inspiralis respectively); purchased TopoGEN TG1001 (human TOP2 assay kit)
T2 sequence (P11388 whole entry): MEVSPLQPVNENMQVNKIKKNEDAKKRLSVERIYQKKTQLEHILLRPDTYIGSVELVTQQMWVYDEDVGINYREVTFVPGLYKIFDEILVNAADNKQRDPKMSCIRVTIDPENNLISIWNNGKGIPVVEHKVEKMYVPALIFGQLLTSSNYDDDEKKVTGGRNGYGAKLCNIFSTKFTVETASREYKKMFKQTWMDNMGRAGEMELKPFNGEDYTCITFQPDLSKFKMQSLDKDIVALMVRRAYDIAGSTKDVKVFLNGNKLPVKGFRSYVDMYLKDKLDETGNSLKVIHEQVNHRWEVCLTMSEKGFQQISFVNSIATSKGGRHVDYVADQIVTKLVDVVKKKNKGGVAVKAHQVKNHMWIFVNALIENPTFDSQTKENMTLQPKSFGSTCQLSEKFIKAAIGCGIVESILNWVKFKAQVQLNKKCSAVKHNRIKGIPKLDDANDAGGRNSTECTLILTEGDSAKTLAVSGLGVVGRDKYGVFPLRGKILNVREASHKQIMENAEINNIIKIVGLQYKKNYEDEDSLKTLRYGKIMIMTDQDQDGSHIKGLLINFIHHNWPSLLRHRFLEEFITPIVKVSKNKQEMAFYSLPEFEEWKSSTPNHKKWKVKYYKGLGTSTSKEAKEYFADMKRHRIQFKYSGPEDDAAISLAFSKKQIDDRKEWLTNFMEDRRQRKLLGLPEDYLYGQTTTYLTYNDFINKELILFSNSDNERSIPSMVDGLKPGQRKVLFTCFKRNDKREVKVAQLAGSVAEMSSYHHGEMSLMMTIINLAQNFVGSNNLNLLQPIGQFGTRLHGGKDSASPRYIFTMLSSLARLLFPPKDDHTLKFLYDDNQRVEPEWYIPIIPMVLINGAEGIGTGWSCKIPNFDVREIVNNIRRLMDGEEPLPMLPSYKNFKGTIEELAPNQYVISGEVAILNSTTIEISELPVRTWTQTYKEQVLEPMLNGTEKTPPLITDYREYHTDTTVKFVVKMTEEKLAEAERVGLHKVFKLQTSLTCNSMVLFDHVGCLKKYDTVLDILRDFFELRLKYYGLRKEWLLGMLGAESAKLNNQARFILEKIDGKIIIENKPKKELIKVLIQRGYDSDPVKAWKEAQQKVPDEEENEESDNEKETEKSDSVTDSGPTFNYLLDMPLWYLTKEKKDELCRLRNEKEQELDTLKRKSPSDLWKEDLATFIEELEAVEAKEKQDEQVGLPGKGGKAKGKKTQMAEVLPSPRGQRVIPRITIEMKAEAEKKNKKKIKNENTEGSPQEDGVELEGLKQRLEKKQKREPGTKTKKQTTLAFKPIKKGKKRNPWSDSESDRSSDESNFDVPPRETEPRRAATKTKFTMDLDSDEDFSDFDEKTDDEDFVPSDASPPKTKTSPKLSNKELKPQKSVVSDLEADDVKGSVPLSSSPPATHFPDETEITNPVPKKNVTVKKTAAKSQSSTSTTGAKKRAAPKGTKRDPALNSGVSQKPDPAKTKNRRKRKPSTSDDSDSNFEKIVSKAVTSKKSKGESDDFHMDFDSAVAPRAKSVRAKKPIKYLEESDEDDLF
Method: as §1

[3] = biological target: T3, full-length human TOP2B (Homo sapiens, UniProt Q02880); assay: EMSA with full-length protein; assay type: binding; conditions: 200 µM; 2 µM protein, 300 nM 5ZRF oligo
T3 construct: full-length human TOP2A and TOP2B protein (TopoGEN and Inspiralis respectively); purchased Inspiralis HTB205
T3 sequence (Q02880 whole entry): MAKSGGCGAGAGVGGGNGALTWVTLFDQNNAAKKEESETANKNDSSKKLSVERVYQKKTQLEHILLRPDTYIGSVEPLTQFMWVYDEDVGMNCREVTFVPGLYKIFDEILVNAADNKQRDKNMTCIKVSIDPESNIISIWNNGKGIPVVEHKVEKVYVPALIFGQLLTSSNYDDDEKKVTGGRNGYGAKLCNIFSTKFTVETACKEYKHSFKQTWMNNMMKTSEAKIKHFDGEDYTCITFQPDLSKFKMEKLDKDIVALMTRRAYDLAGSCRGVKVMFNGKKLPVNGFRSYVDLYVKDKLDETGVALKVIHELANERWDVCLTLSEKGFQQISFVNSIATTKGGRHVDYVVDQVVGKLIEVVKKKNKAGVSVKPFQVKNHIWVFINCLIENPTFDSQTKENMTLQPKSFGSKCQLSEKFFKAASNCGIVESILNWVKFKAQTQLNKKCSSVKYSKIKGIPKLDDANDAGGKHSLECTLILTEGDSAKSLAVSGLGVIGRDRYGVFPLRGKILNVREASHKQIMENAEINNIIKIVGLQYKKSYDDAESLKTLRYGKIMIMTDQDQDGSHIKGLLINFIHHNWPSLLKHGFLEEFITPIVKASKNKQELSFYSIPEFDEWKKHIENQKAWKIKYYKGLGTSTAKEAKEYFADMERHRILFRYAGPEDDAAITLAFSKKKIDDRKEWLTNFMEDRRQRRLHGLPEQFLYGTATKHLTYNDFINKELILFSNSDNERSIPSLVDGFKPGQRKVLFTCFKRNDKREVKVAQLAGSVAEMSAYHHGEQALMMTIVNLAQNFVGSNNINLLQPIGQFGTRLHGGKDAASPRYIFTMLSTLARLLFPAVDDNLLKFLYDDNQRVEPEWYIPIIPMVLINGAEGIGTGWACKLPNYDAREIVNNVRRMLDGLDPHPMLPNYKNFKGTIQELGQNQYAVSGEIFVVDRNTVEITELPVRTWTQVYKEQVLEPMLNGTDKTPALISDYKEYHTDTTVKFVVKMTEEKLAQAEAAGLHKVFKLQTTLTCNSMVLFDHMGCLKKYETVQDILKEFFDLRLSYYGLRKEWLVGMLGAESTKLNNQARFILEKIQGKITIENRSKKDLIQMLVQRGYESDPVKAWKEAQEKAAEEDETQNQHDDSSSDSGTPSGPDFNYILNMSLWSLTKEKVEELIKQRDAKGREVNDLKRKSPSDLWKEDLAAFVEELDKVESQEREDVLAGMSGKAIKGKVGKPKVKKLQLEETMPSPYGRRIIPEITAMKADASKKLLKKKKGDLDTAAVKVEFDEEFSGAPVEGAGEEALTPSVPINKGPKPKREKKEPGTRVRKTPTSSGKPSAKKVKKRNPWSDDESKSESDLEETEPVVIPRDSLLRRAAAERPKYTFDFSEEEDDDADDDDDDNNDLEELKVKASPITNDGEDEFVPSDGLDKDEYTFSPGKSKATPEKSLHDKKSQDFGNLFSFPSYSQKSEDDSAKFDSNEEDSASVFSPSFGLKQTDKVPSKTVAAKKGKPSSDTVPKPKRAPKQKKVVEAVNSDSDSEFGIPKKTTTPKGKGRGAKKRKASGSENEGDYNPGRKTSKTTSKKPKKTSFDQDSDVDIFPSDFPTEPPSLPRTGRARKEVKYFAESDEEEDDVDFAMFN
Method: as §1

[4] = system: K562 xenografts; assay: K562 xenografts, intra-tumor polymeric paste; assay type: in vivo, nude mice (Nu/Nu); conditions: single 30 µl paste, 1% T60 or T633, 0.3% etoposide
Method: The polymeric paste was prepared with 50% poly-DL-lactide-coglycolide (PLGA) and 50% PEG 300 (w/w) as we have reported ([57]). […] The density of the paste was determined to be 1.2 g/ml ( ± 3%). One million K562 cells were inoculated subcutaneously in bilateral flanks of nude mice (Nu/Nu). […] Tumor volumes were measured every three days and were calculated by length × width × depth × 0.5236. Mice were euthanized when tumor volumes reached 15% of body weight or weight loss >20% occurred. The remaining mice were euthanized after the control group was euthanized. All animal procedures were under the guidelines of the Canadian Council on Animal Care and were approved by the UBC Animal Care Committee (# A19-0256).

[5] = system: AR target genes such as PSA and FKBP5; assay: Real-time PCR of AR target genes; assay type: cell-based; conditions: LNCaP and LNCaP95 cells, 0-20 µM, −/+10nM DHT
[6] = system: AR-v7; assay: Probasin- and PSA-luciferase reporter in 293T cells; assay type: cell-based; conditions: 0-20 µM
[7] = biological target: T4, TOP2A (Homo sapiens, UniProt P11388); assay: DNA cleavage assay; assay type: biochemical; parameters: full-length human TOP2A and TOP2B protein (TopoGEN and Inspiralis respectively); purchased TopoGEN TG1001 (human TOP2 assay kit); conditions: co-treatment with 200 µM etoposide; 1, 100, 200 µM
T4 sequence (P11388 whole entry): as the sequence (P11388 whole entry) above
Method: The reactions were incubated in 37C for 30 min and stopped by adding 2 µl of 10% SDS and 1 µl of 250 mM of EDTA, followed by the addition of 50 µg/ml of proteinase K at 45C for 30 min. The reaction was then resolved by electrophoresis on a 1% agarose gel containing […] ethidium bromide in TAE buffer at 60 V. DNA bands were visualized using a gel imager (Gel Doc™ EZ System) and quantified by using the Image Studio™ Lite Quantification Software.

[8] = biological target: T4, TOP2A; assay: Cellular thermal shift assay; assay type: cell-based; parameters: endogenous in cells; host or cells: K562 (the thermal shift text says HeLa, the legend says K562); K562 for chromatin fractionation; conditions: 20 µM; vehicle 40C; Hela cells
Method: (§2) In the thermal shift assays, cells were treated with vehicle or T60 for 1 h and split into equal aliquots to be heated at 37 to 46°. Protein lyses were collected to perform immunoblotting assays with TOP2 antibodies (Abcam 12318, Santa Cruz sc-13059 & sc-365071). Our chromatin fractionation assays followed the protocol as previously described (Méndez & Stillman, 2000; Wysocka, Reilly, & Herr, 2001). Briefly, K562 cells (4 × 10 ([7]) cells/ml) were collected and re-suspended in buffer A (10 mM HEPES [pH 7.9], 10 mM KCl, 1.5 mM MgCl2, 0.34 M sucrose, 10% glycerol, 1 mM DTT, and protease inhibitor cocktail), before Triton X-100 was added to final concentration at 0.1%. Cells were then incubated on ice for 10 min, and nuclei were collected by centrifugation at speed of 1,300g for 4 min at 4°C. The nuclei were then washed once with buffer A and then incubated with buffer B (3 mM EDTA, 0.2 mM EGTA, 1 mM DTT, and protease inhibitor cocktail [ROCHE]) for 30 min in ice. Insoluble chromatin was collected by centrifugation at 1,700g for 4 min at 4°C, and washed once with buffer B. Chromatin associated proteins were extracted by incubation with Buffer C [500 mM Tris-HCl (pH 6.8), 500 mM NaCl, and protease inhibitor cocktail (ROCHE)] followed by brief sonication. The supernatant was collected to perform immunoblotting assays with TOP2 antibodies as we have described ([51]–[53]).

[9] = biological target: TOP2B (Homo sapiens, UniProt Q02880); assay: Cellular thermal shift assay; assay type: cell-based; parameters: endogenous in cells; host or cells: K562 (the thermal shift text says HeLa, the legend says K562); K562 for chromatin fractionation; conditions: 20 µM; vehicle 40C; Hela cells
Method: as §2

T1 sequence (P11388 431-1193): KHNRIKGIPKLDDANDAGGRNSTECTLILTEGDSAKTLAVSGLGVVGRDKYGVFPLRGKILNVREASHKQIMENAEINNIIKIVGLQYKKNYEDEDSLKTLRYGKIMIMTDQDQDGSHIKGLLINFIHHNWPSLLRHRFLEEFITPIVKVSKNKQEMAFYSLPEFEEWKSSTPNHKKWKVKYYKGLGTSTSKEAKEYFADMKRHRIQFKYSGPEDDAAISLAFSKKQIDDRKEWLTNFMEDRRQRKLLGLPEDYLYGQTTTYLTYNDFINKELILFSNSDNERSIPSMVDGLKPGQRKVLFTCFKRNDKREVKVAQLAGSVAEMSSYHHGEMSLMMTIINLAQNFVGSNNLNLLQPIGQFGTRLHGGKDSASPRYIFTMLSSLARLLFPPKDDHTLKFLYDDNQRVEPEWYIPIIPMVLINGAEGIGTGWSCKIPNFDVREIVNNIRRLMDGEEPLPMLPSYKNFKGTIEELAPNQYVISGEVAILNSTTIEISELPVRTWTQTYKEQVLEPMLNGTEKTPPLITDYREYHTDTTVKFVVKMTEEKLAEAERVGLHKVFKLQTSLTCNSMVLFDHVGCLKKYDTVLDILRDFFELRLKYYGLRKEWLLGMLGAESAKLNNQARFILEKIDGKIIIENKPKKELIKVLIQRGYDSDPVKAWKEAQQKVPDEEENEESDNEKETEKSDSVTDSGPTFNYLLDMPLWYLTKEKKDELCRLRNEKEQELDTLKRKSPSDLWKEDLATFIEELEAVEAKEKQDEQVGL

SMILES: O=C(Nc1ccc(Nc2ccccc2)cc1)c1ccc[nH]c1=S [T60]
- Abolishment of TOP2A (431–1193)-induced upshifted DNA band [1]: abolished
- Interruption of mobility retarded band, full-length TOP2A [2]: interrupted
- Interruption of mobility retarded band, full-length TOP2B [3]: interrupted
- Tumor growth at the end of two weeks [4]: strongly inhibit tumor growth comparable to etoposide
- mRNA expression of AR target genes (PSA, FKBP5) [5]: inhibited mRNA expression of AR target genes
- Luciferase activities driven by probasin and PSA promoters, AR-v7 [6]: inhibited luciferase activities
- Prevention of etoposide-induced DNA cleavage, TOP2A [7]: prevented
- Temperature up to which TOP2A protein is stabilized [8]: up to 43 C
- Temperature up to which TOP2B protein is stabilized [9]: up to 43 C
